Key:
[1] = biological target: unphosphorylated Lyn kinase (Homo sapiens, UniProt P07948); assay: Z'-LYTE Kinase Assay Kit-Tyr Peptide-2 Lyn kinase activation assay; format: biochemical; conditions: for Fold-Activation: 30 μM vs DMSO; for % Phosphorylation of Substrate: 30 μM
Procedure: The following example was conducted to further optimize assay conditions for detecting Compound 102-mediated activation of Lyn kinase. The assays describe below utilize the Z′-LYTE™ Kinase Assay Kit-Tyr Peptide (Invitrogen, Carlsbad, Calif.). These assay systems were originally developed to detect inhibitors of various tyrosine kinases.
The assay system used was a non-radiometric assay utilizing the Z′-LYTE™ Kinase Assay Kit-Tyr Peptide-2 (Invitrogen, Carlsbad, Calif.) for detecting activity of Lyn kinase. Buffer components were altered as described below. The lyn kinase protein used in these studies was the unphosphorylated form of the protein. Concentrations of this unphosphorylated lyn protein ranged from 25 ng/mL to 300 ng/mL. The preincubation step was lengthened from 30 minutes to 60 minutes.
The Invitrogen Reaction Buffer was used for all studies. The following additions were made to this Reaction Buffer and tested separately and compared to Reaction Buffer alone: Modification 1: Reaction Buffer with 0.1% BSA; Modification 2: Reaction Buffer with 1 mM dithiothreitol; Modification 3: Reaction Buffer with 0.01% BSA, 1 mM dithiothreitol; and Modification 4: Reaction Buffer with 0.1% β-mercaptoethanol.

Lyn (h) = Lyn (h) (Homo sapiens, UniProt P07948); assay: Lyn kinase activation, pre-incubation then standard radiometric assay; format: biochemical
Lyn = Lyn (Homo sapiens, UniProt P07948); conditions: 100 μM; ATP 0 to 800 μM
MET = MET (Homo sapiens, UniProt P08581); assay: kinase screen for inhibition or activation; format: biochemical; conditions: 10 μM
Procedure: (§1) A kinase screen was conducted in which Compound 102 (10 μM) was screened against 49 kinases for inhibition or activation. Any kinase that was activated or inhibited by at least 20% was considered to be a significant effect. Of the 49 kinases screened, Lyn kinase was activated by 51%. In a repeat experiment, Lyn kinase activity was increased by 57%.

MST2 = MST2 (Homo sapiens, UniProt Q13188); assay: kinase screen for inhibition or activation; format: biochemical; conditions: 10 μM
Procedure: as §1

MAPK14 (P38) = MAPK14 (P38) (Homo sapiens, UniProt Q16539); assay: kinase screen for inhibition or activation; format: biochemical; conditions: 10 μM
Procedure: as §1

PKCz = PKCz (Homo sapiens, UniProt Q05513); assay: kinase screen for inhibition or activation; format: biochemical; conditions: 10 μM
Procedure: as §1

IRAK4 = IRAK4 (Homo sapiens, UniProt Q9NWZ3); assay: kinase screen for inhibition or activation; format: biochemical; conditions: 10 μM
Procedure: as §1

Flt3 = Flt3 (Homo sapiens, UniProt P36888); assay: kinase screen for inhibition or activation; format: biochemical; conditions: 10 μM
Procedure: as §1

MAPKAP2 = MAPKAP2 (Homo sapiens, UniProt P49137); assay: kinase screen for inhibition or activation; format: biochemical; conditions: 10 μM
Procedure: as §1

InsR = InsR (Homo sapiens, UniProt P06213); assay: kinase screen for inhibition or activation; format: biochemical; conditions: 10 μM
Procedure: as §1

PKCb2 = PKCb2 (Homo sapiens, UniProt P05771); assay: kinase screen for inhibition or activation; format: biochemical; conditions: 10 μM
Procedure: as §1

FGFR3 = FGFR3 (Homo sapiens, UniProt P22607); assay: kinase screen for inhibition or activation; format: biochemical; conditions: 10 μM
Procedure: as §1

AMPK = assay: kinase screen for inhibition or activation; format: biochemical; conditions: 10 μM, positive = activation, negative = inhibition
Procedure: as §1

Abl = Abl (Homo sapiens, UniProt P00519); assay: kinase screen for inhibition or activation; format: biochemical; conditions: 10 μM
Procedure: as §1

Src = Src (Homo sapiens, UniProt P12931); assay: kinase screen for inhibition or activation; format: biochemical; conditions: 10 μM
Procedure: as §1

Pim2 = Pim2 (Homo sapiens, UniProt Q9P1W9); assay: kinase screen for inhibition or activation; format: biochemical; conditions: 10 μM
Procedure: as §1

CK1d = CK1d (Homo sapiens, UniProt P48730); assay: kinase screen for inhibition or activation; format: biochemical; conditions: 10 μM
Procedure: as §1

Akt1 = Akt1 (Homo sapiens, UniProt P31749); assay: kinase screen for inhibition or activation; format: biochemical; conditions: 10 μM
Procedure: as §1

CDK2/cyclinA = CDK2/cyclinA (Homo sapiens, UniProt P24941); assay: kinase screen for inhibition or activation; format: biochemical; conditions: 10 μM
Procedure: as §1

EphA2 = EphA2 (Homo sapiens, UniProt P29317); assay: kinase screen for inhibition or activation; format: biochemical; conditions: 10 μM
Procedure: as §1

MAPKAP5 = MAPKAP5 (Homo sapiens, UniProt Q8IW41); assay: kinase screen for inhibition or activation; format: biochemical; conditions: 10 μM
Procedure: as §1

[2] = Modification 1: Reaction Buffer with 0.1% BSA
[3] = Modification 2: Reaction Buffer with 1 mM dithiothreitol
[4] = Modification 3: Reaction Buffer with 0.01% BSA, 1 mM dithiothreitol
[5] = Modification 4: Reaction Buffer with 0.1% β-mercaptoethanol

Sequence of Lyn (h) (P07948 whole entry): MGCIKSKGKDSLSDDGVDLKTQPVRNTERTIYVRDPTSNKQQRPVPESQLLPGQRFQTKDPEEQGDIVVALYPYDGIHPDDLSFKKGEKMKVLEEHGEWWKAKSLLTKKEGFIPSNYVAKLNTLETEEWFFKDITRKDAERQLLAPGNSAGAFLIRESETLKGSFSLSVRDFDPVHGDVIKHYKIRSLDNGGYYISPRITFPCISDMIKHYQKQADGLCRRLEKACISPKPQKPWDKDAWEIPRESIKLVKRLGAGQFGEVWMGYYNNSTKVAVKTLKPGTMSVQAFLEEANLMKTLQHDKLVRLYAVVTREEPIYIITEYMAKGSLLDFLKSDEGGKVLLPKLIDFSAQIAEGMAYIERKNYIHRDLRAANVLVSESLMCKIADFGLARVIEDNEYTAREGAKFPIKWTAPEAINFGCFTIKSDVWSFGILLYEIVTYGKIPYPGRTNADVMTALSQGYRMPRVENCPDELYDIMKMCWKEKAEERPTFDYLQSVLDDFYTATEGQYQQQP
Sequence of unphosphorylated Lyn kinase (P07948 whole entry): as above
Sequence of Lyn (P07948 whole entry): as above
Sequence of MST2 (Q13188 whole entry, species assumed): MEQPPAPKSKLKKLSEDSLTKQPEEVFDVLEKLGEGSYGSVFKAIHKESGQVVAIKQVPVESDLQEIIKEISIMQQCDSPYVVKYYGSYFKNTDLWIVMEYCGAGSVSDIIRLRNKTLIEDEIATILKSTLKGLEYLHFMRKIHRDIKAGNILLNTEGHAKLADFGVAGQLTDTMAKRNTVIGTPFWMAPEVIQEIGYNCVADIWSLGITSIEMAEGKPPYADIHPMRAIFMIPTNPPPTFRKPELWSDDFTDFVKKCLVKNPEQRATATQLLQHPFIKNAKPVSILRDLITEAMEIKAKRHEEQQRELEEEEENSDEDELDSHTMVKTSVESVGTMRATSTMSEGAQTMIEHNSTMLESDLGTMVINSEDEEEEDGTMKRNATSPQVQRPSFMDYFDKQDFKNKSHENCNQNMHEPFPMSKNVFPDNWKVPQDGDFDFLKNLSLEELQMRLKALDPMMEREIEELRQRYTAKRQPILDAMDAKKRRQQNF
Sequence of Pim2 (Q9P1W9 whole entry, species assumed): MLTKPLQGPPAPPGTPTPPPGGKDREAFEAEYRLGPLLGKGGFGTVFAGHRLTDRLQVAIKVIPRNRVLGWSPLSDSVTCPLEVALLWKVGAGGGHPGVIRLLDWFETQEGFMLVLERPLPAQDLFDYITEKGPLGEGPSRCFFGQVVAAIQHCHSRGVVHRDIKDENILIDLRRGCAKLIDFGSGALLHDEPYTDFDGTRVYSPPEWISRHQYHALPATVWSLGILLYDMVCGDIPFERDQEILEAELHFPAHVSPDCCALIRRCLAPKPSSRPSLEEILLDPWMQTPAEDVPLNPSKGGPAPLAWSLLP
Sequence of Abl (P00519 whole entry, species assumed): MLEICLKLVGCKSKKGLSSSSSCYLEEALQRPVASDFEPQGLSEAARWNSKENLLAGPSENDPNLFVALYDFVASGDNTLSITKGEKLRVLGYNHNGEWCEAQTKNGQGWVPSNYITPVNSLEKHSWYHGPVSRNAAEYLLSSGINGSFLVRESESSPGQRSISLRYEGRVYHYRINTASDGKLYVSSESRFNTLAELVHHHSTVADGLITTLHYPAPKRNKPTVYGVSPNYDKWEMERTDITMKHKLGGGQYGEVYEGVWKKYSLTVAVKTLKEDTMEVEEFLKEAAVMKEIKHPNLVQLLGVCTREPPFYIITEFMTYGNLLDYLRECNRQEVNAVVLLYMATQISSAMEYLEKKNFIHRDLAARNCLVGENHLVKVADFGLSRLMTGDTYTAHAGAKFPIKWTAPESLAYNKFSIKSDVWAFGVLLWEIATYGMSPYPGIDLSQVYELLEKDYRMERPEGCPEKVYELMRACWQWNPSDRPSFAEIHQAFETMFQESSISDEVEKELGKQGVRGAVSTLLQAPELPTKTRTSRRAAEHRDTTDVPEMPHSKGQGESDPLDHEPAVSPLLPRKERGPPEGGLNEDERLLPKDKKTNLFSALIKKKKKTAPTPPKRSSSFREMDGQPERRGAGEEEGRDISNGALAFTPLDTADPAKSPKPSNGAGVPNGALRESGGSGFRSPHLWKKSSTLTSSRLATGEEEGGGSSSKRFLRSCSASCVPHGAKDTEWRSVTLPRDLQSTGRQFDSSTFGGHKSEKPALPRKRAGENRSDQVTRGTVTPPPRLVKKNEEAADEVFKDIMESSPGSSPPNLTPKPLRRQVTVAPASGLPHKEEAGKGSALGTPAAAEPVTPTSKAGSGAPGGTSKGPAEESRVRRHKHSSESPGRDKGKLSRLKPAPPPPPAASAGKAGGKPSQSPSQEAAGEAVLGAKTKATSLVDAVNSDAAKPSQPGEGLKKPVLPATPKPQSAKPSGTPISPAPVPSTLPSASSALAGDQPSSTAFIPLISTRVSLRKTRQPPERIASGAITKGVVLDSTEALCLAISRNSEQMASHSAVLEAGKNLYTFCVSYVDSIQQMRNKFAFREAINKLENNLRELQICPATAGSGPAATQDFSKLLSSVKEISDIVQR
Sequence of Src (P12931 whole entry, species assumed): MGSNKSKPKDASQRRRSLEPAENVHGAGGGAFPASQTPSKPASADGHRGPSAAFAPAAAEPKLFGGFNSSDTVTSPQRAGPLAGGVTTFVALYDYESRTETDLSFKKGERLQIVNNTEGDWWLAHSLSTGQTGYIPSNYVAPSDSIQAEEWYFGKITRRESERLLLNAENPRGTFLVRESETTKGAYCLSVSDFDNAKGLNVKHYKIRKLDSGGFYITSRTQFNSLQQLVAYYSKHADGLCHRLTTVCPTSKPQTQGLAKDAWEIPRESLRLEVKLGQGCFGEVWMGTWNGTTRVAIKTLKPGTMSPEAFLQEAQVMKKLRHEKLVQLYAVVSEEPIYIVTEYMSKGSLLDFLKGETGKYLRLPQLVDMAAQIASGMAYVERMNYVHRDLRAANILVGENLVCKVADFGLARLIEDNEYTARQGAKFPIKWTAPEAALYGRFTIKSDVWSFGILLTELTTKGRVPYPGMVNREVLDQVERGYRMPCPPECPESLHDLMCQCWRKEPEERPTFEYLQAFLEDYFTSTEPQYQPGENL
Sequence of CK1d (P48730 whole entry): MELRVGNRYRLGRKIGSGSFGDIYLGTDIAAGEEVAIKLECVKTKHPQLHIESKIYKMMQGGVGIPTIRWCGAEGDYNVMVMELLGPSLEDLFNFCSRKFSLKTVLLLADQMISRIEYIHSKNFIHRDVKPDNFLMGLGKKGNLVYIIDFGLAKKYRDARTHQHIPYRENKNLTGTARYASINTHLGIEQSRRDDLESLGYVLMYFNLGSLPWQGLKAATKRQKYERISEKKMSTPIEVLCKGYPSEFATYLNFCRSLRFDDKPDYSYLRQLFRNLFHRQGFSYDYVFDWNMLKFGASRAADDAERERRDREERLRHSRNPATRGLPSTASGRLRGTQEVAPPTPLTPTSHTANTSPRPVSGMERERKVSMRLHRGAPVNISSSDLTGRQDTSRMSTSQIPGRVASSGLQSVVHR
Sequence of InsR (P06213 28-1382, species assumed): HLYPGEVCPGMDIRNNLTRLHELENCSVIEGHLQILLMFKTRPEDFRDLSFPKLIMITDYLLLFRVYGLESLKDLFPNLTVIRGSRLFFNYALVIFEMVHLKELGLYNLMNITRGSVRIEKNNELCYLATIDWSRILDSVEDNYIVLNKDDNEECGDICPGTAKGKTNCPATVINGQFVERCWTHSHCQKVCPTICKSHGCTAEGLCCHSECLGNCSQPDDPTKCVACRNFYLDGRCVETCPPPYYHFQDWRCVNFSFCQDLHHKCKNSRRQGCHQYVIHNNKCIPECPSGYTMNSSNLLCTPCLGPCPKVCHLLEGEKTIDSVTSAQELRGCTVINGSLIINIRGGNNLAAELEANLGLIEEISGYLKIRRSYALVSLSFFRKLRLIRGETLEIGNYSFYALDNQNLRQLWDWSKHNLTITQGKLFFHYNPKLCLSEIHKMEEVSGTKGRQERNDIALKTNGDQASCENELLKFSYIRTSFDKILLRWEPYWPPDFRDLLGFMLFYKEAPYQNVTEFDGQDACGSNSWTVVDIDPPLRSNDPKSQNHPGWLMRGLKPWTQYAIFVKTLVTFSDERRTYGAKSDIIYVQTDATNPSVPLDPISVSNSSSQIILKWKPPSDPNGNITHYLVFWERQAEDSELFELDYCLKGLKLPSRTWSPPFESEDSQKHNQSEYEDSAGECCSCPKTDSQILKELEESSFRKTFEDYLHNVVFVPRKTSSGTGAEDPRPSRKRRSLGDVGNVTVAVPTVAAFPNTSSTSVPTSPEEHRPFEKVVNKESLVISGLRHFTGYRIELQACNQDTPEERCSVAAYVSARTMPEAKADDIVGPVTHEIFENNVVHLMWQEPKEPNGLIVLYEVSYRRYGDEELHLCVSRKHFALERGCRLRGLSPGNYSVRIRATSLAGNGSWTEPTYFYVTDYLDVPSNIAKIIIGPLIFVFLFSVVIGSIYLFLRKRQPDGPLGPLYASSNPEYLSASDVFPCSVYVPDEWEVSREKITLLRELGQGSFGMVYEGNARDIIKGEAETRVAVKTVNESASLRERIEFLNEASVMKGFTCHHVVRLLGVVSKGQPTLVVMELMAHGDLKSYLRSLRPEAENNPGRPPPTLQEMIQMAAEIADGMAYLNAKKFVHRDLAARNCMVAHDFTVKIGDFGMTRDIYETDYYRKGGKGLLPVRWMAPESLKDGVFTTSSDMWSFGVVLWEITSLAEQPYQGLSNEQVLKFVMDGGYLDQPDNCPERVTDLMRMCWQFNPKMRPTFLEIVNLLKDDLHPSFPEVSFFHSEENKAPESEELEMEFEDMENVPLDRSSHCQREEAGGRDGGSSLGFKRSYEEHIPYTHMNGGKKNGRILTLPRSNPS

Fold-Activation [1, 2]: 1.1 fold
Fold-Activation [1, 3]: 1.2 fold
Fold-Activation [1, 4]: 1.6 fold
Fold-Activation [1, 5]: 2.4 fold
Fold-Activation ([1]; Reaction Buffer): 1.6 fold
% Phosphorylation of Substrate [1, 2]: 33.6%
% Phosphorylation of Substrate [1, 3]: 80.9%
% Phosphorylation of Substrate [1, 4]: 83.4%
% Phosphorylation of Substrate [1, 5]: 33.3%
% Phosphorylation of Substrate ([1]; Reaction Buffer): 16.2%
activity of Lyn kinase (h) relative to the DMSO control (Lyn (h); 100 μM, 30 minutes pre-incubation on ice, 10 μM ATP, 40 minutes at room temperature): more than 3 fold
EC50 (Lyn (h); 30 minutes pre-incubation on ice, 10 μM ATP): 650 nM
effect on the Km for ATP (Lyn): did not alter the Km for ATP
increase of the Vmax of Lyn kinase (Lyn): 3 fold
COMPOUND 102 ACTIVITY (% KINASE ACTIVITY) (MET): 9.88%
COMPOUND 102 ACTIVITY (% KINASE ACTIVITY) (MST2): 4.59%
COMPOUND 102 ACTIVITY (% KINASE ACTIVITY) (MAPK14 (P38)): 1.74%
COMPOUND 102 ACTIVITY (% KINASE ACTIVITY) (PKCz): 9.05%
COMPOUND 102 ACTIVITY (% KINASE ACTIVITY) (IRAK4): 2.25%
COMPOUND 102 ACTIVITY (% KINASE ACTIVITY) (Flt3): 7.34%
COMPOUND 102 ACTIVITY (% KINASE ACTIVITY) (MAPKAP2): −13.04%
COMPOUND 102 ACTIVITY (% KINASE ACTIVITY) (InsR): 16.92%
COMPOUND 102 ACTIVITY (% KINASE ACTIVITY) (PKCb2): −1.12%
COMPOUND 102 ACTIVITY (% KINASE ACTIVITY) (FGFR3): −1.58%
COMPOUND 102 ACTIVITY (% KINASE ACTIVITY) (AMPK): −0.95%
COMPOUND 102 ACTIVITY (% KINASE ACTIVITY) (Abl): −4.04%
COMPOUND 102 ACTIVITY (% KINASE ACTIVITY) (Src): 4.56%
COMPOUND 102 ACTIVITY (% KINASE ACTIVITY) (Pim2): −8.06%
COMPOUND 102 ACTIVITY (% KINASE ACTIVITY) (CK1d): −1.5%
COMPOUND 102 ACTIVITY (% KINASE ACTIVITY) (Akt1): 1.51%
COMPOUND 102 ACTIVITY (% KINASE ACTIVITY) (CDK2/cyclinA): −3.93%
COMPOUND 102 ACTIVITY (% KINASE ACTIVITY) (EphA2): 1.03%
COMPOUND 102 ACTIVITY (% KINASE ACTIVITY) (MAPKAP5): 0.79%
SMILES: Cc1cccc(Oc2cnc(=O)[nH]c2)c1 [Compound 102]
concentration dependence of Lyn kinase (h) activity (Lyn (h); 1, 3, 10, 30 and 100 μM): increased with Compound 102 concentration in a dose-dependent manner
